According to PubChem BioAssay AID330 (DTP/NCI, 2004):
Where “and” joins values, the source holds several entries; their conditions need not be identical. Equal entries are not always repeated. Toxic doses and inconclusive results are not listed. The calls were made as follows: active = survival T/C of 150% or more; inactive = T/C below 125% in these data.

Test system: P388 leukemia ip, CD2F1 mice, survival T/C
Assay: NCI In Vivo Anticancer Drug Screen. Data for tumor model P388 Leukemia (intraperitoneal) in CD2F1 (CDF1) mice
Settings: endpoint: median survival time, higher = longer survival
Summary of the method: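 Mice carrying the transplanted tumor received test compound or vehicle. Survival was recorded in each group, and the value is the treated-group measurement divided by that of the vehicle-treated control group.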

[1] = dose: 50.0 mg/kg/injection, schedule: Q01DX009 (ip), vehicle: saline with Tween-80
[2] = dose: 50.0 mg/kg/injection, schedule: Q01DX009 (ip), vehicle: saline
[3] = dose: 100.0 mg/kg/injection, schedule: Q01DX009 (ip), vehicle: saline
[4] = dose: 200.0 mg/kg/injection, schedule: Q01DX009 (ip), vehicle: saline
[5] = dose: 6.25 mg/kg/injection, schedule: Q01DX005 (ip), vehicle: Klucel (hydroxypropylcellulose) (HPC)
[6] = dose: 50.0 mg/kg/injection, schedule: Q01DX005 (ip), vehicle: Klucel (hydroxypropylcellulose) (HPC)
[7] = dose: 100.0 mg/kg/injection, schedule: Q01DX005 (ip), vehicle: Klucel (hydroxypropylcellulose) (HPC)
[8] = dose: 100.0 mg/kg/injection, schedule: Q01DX009 (ip), vehicle: saline with Tween-80
[9] = dose: 200.0 mg/kg/injection, schedule: Q01DX009 (ip), vehicle: saline with Tween-80

Measured: T/C

CNC(=O)C(C(=O)NC)c1ccccc1
inactive: dose: 100.0 mg/kg/injection, schedule: Q04DX003 (ip), vehicle: Klucel (hydroxypropylcellulose) (HPC) 95 % of control | dose: 200.0 mg/kg/injection, schedule: Q04DX003 (ip), vehicle: Klucel (hydroxypropylcellulose) (HPC) 95 % of control | dose: 400.0 mg/kg/injection, schedule: Q04DX003 (ip), vehicle: Klucel (hydroxypropylcellulose) (HPC) 96 % of control

Cc1cc(Cl)n2nc(-c3ccc(Cl)cc3)nc2n1
inactive: dose: 12.5 mg/kg/injection, schedule: Q01DX009 (ip), vehicle: Klucel (hydroxypropylcellulose) (HPC) 106 % of control | dose: 25.0 mg/kg/injection, schedule: Q01DX009 (ip), vehicle: Klucel (hydroxypropylcellulose) (HPC) 100 % of control | dose: 50.0 mg/kg/injection, schedule: Q01DX009 (ip), vehicle: Klucel (hydroxypropylcellulose) (HPC) 109 % of control and 110 % of control

O=c1[nH]cc(NS(=O)(=O)c2ccc([N+](=O)[O-])cc2)c(=O)[nH]1
inactive: dose: 60.0 mg/kg/injection, schedule: Q01DX005 (ip), vehicle: Klucel (hydroxypropylcellulose) (HPC) 101 % of control | dose: 120.0 mg/kg/injection, schedule: Q01DX005 (ip), vehicle: Klucel (hydroxypropylcellulose) (HPC) 103 % of control | dose: 240.0 mg/kg/injection, schedule: Q01DX005 (ip), vehicle: Klucel (hydroxypropylcellulose) (HPC) 108 % of control

CCN(CC)CCNc1ncnc(N)c1C(=C(C)C)c1ccc(Cl)cc1
inactive: [1] 87 % of control

Cc1ccc(NC(=O)Oc2cc(C)c(Cl)cc2Br)cc1Cl
inactive: [2] 100 % of control | [3] 107 % of control | [4] 116 % of control

COC(=O)C(=O)C1CCc2c(C(=O)OC)nc3[nH]n(-c4ccccc4)c(=O)c3c21 (stereo not drawn)
inactive: dose: 60.0 mg/kg/injection, schedule: Q01DX005 (ip), vehicle: saline with Tween-80 111 % of control | dose: 120.0 mg/kg/injection, schedule: Q01DX005 (ip), vehicle: saline with Tween-80 94 % of control | dose: 240.0 mg/kg/injection, schedule: Q01DX005 (ip), vehicle: saline with Tween-80 88 % of control

CN(C)C1C(O)C2Oc3c(cc(O)c4c3C(=O)c3cc5c(c(O)c3C4=O)C(OCC3COC(C)(C)O3)CC(C)(O)C5)C(C)(O2)C1O (stereo not drawn)
inactive: dose: 2.0 mg/kg/injection, schedule: Q01DX009 (ip), vehicle: other 105 % of control | dose: 4.0 mg/kg/injection, schedule: Q01DX009 (ip), vehicle: other 117 % of control | dose: 8.0 mg/kg/injection, schedule: Q01DX009 (ip), vehicle: other 123 % of control | dose: 16.0 mg/kg/injection, schedule: Q01DX009 (ip), vehicle: other 123 % of control

CC(C)CCC[C@@H](C)[C@H]1CC[C@H]2[C@@H]3CC[C@H]4C[C@@H](N)CC[C@]4(C)[C@H]3CC[C@]12C
inactive: [5] 98 % of control | dose: 12.5 mg/kg/injection, schedule: Q01DX005 (ip), vehicle: Klucel (hydroxypropylcellulose) (HPC) 97 % of control | dose: 25.0 mg/kg/injection, schedule: Q01DX005 (ip), vehicle: Klucel (hydroxypropylcellulose) (HPC) 95 % of control | [6] 112 % of control | [7] 109 % of control

O=C(Nc1cccc(Cl)c1)ON1C(=O)C2C(C1=O)C1(Cl)C(Cl)C(Cl)C2(Cl)C1(Cl)Cl (stereo not drawn)
inactive: [1] 103 % of control and 110 % of control | [8] 110 % of control and 112 % of control and 120 % of control | [9] 106 % of control and 124 % of control | dose: 400.0 mg/kg/injection, schedule: Q01DX009 (ip), vehicle: saline with Tween-80 108 % of control and 110 % of control

CCOC(=O)C/C(O)=C(\N=Nc1nc[nH]c1C(N)=O)C(=O)OCC
inactive: dose: 50.0 mg/kg/injection, schedule: Q01DX005 (ip), vehicle: saline with Tween-80 105 % of control | dose: 100.0 mg/kg/injection, schedule: Q01DX005 (ip), vehicle: saline with Tween-80 91 % of control | dose: 200.0 mg/kg/injection, schedule: Q01DX005 (ip), vehicle: saline with Tween-80 97 % of control

Cc1cc(C2(c3cc(C)c(O)c(CN(CC(=O)O)CC(=O)O)c3)OS(=O)(=O)c3ccccc32)cc(CN(CC(=O)O)CC(=O)O)c1O
inactive: [2] 105 % of control | [3] 96 % of control | [4] 104 % of control

CN(NC(=O)C(=O)NCc1ccco1)C(=O)NC1CCCCC1
inactive: [6] 103 % of control | [7] 100 % of control | dose: 200.0 mg/kg/injection, schedule: Q01DX005 (ip), vehicle: Klucel (hydroxypropylcellulose) (HPC) 96 % of control

O=C(/C=C/c1ccccc1)NOC(=O)/C=C/c1ccccc1
inactive: dose: 25.0 mg/kg/injection, schedule: Q01DX009 (ip), vehicle: saline with Tween-80 107 % of control | [1] 107 % of control and 123 % of control | [8] 111 % of control and 114 % of control | [9] 115 % of control

C/C=C(\C)C(=O)OC1CCC2(C)C3CCC4C5(O)CC(O)C6(O)C(CN7CC(C)CCC7C6(C)O)C5(O)CC42OC13O (stereo not drawn)
inactive: dose: 1.56 mg/kg/injection, schedule: Q01DX005 (ip), vehicle: Klucel (hydroxypropylcellulose) (HPC) 98 % of control | dose: 1.56 mg/kg/injection, schedule: Q01DX005 (ip), vehicle: saline 96 % of control | dose: 3.12 mg/kg/injection, schedule: Q01DX005 (ip), vehicle: Klucel (hydroxypropylcellulose) (HPC) 106 % of control | dose: 3.12 mg/kg/injection, schedule: Q01DX005 (ip), vehicle: saline 96 % of control | [5] 109 % of control and 91 % of control | dose: 6.25 mg/kg/injection, schedule: Q01DX005 (ip), vehicle: saline 96 % of control
